Source: patent US10226453B2, “3-(1H-indol-2-yl)-1H-pyrazolo[4,3-B]pyridines and therapeutic uses thereof” (Samumed, LLC, priority 2015, dated 2019)

How the values were obtained:
SW480 colon cancer cells = test: Cell viability assay (CellTiter-Blue), SW480 colon cancer cells; type: cell-based; conditions: Homo sapiens, 96 h, four days; for EC50: CellTiter-Blue; for inhibition at 10 µM: given where EC50 >10 μM, read-out: percent inhibition at 10 μM
Method in brief: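 SW480 cells (~2×10^3/well) exposed four days at 37 °C to 8-point 1:3 dilutions, 10 μM down to 0.0045 μM. Viability from resazurin reduction (CellTiter-Blue, ~3 h, Ex 560/Em 590); EC50 by non-linear regression, or percent inhibition at 10 μM where EC50 exceeds 10 μM.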

[1] = system: primary human mesenchymal stem cells (hMSCs); test: Induction of chondrogenesis in primary human mesenchymal stem cells (hMSCs), nodule count; type: cell-based; conditions: 144 h, 6 days; for EC50: concentration required to induce 50% levels of chondrogenesis of TGF-β3 control, read-out: Conc (nM) of 50% TGF-β3 activity; for Emax: relative to TGF-β3 (10 ng/mL) positive control, read-out: Max. Activity as % TGF-β3 activity
Method: Representative compounds were screened using primary human mesenchymal stem cells (hMSCs) to determine their ability to induce chondrogenesis (process by which cartilage is developed).
Primary human mesenchymal stem cells (hMSCs) were purchased from Lonza (Walkersville, Md.) and expanded in Mesenchymal Stem Cell Growth Media (Lonza). Cells between passage 3 and 6 were used for the experiments.
Each compound was dissolved in DMSO as a 10 mM stock and used to prepare compound source plates. Serial dilution (1:3, 6-point dose-response curves from 2700 nM to 10 nM) and compound transfer was performed using the ECHO 550 (Labcyte, Sunnyvale, Calif.) into 96-well clear bottom assay plates (Greiner Bio-One) with appropriate DMSO backfill for a final DMSO concentration of 0.03%. hMSCs were plated at 20,000 cells/well in 250 μL/well Incomplete Chondrogenic Induction Medium (Lonza; DMEM, dexamethasone, ascorbate, insulin-transferrin-selenium [ITS supplement], gentamycin-amphotericin [GA-1000], sodium pyruvate, proline and L-glutamine). TGF-β3 (10 ng/mL) was used as a positive control for differentiation while negative control wells were treated with 75 nL DMSO for normalization and calculating EC50 values. Cells were incubated at 37° C. and 5% CO2 for 6 days. To image chondrogenic nodules, the cells were fixed using 4% formaldehyde (Electron Microscopy Sciences), and stained with 2 μg/mL Rhodamine B (Sigma-Aldrich) and 20 μM Nile Red (Sigma-Aldrich) [Johnson K., et. al, A Stem Cell-Based Approach to Cartilage Repair, Science, (2012). 336(6082), 717-721]. The nodules imaged (4 images per well at 4× magnification) by excitation at 531 nm and emission at 625 nm and quantified using the CellInsight CX5 (Thermo Scientific). Number of nodules in each well was normalized to the average of 3 DMSO treated wells on the same plate using Excel (Microsoft Inc.). The normalized averages (fold change over DMSO) of 3 replicate wells for each compound concentration were calculated. Due to solubility limitations of some of the compounds, curve fitting was incomplete leading to inaccurate EC50 determinations.
Using TGF-β3 as a positive control, the concentration of representative compounds required to induce 50% levels of chondrogenesis is reported. In addition, the maximum activity of each compound and the respective dose that each compound reached maximum chondrogenesis activity is reported.

Row | SMILES | EC50 (SW480 colon cancer cells) [nM] | EC50 [1] [nM] | Emax [1] [%] | inhibition at 10 µM (SW480 colon cancer cells) [%]
1 | Cc1ccncc1-c1ccc2[nH]nc(-c3cc4c(N5CCN(C)CC5)cccc4[nH]3)c2n1 [Compound 229, 3-(4-(4-Methylpiperazin-1-yl)-1H-indol-2-yl)-5-(4-methylpyridin-3-yl)-1H-pyrazolo[4,3-b]pyridine] | 4740 | 10 | 63 | 
2 | CN(C)Cc1cncc(-c2ccc3[nH]nc(-c4cc5ccccc5[nH]4)c3n2)c1 [Compound 265, 1-(5-(3-(1H-Indol-2-yl)-1H-pyrazolo[4,3-b]pyridin-5-yl)pyridin-3-yl)-N,N-dimethylmethanamine] | 2940 |  | 21 | 
3 | FC1(F)CCN(Cc2cncc(-c3ccc4[nH]nc(-c5cc6ccccc6[nH]5)c4n3)c2)C1 [Compound 278, 5-(5-((3,3-Difluoropyrrolidin-1-yl)methyl)pyridin-3-yl)-3-(1H-indol-2-yl)-1H-pyrazolo[4,3-b]pyridine] | 590 | 2700 | 293 | 
4 | c1cc(-c2ccoc2)c2cc(-c3n[nH]c4ccc(-c5cncc(CNCC6CCCC6)c5)nc34)[nH]c2c1 [Compound 333, 1-Cyclopentyl-N-((5-(3-(4-(furan-3-yl)-1H-indol-2-yl)-1H-pyrazolo[4,3-b]pyridin-5-yl)pyridin-3-yl)methyl)methanamine] | 3450 |  | 25 | 
5 | CN(C)CCNc1cc(F)cc(-c2cccc3[nH]c(-c4n[nH]c5ccc(-c6cccnc6)nc45)cc23)c1 [Compound 452, N^1-(3-Fluoro-5-(2-(5-(pyridin-3-yl)-1H-pyrazolo[4,3-b]pyridin-3-yl)-1H-indol-4-yl)phenyl)-N^2,N^2-dimethylethane-1,2-diamine] | 290 | 2700 | 67 | 
6 | CN(C)CCNc1cc(F)cc(-c2cccc3[nH]c(-c4n[nH]c5ccc(-c6cncc(CN7CCCCC7)c6)nc45)cc23)c1 [Compound 463, N^1-(3-Fluoro-5-(2-(5-(5-(piperidin-1-ylmethyl)pyridin-3-yl)-1H-pyrazolo [4,3-b]pyridin-3-yl)-1H-indol-4-yl)phenyl)-N^2,N^2-dimethylethane-1,2-diamine] | 1180 |  | 48 | 
7 | CN(C)CCNc1cc(F)cc(-c2cccc3[nH]c(-c4n[nH]c5ccc(-c6ccccn6)nc45)cc23)c1 [Compound 476, N^1-(3-Fluoro-5-(2-(5-(pyridin-2-yl)-1H-pyrazolo[4,3-b]pyridin-3-yl)-1H-indol-4-yl)phenyl)-N^2,N^2-dimethylethane-1,2-diamine] | 5900 |  | 42 | 
8 | c1cc(-c2ccncc2)c2cc(-c3n[nH]c4ccc(-c5cncc(OCCN6CCCC6)c5)nc34)[nH]c2c1 [Compound 606, 3-(4-(Pyridin-4-yl)-1H-indol-2-yl)-5-(5-(2-(pyrrolidin-1-yl)ethoxy)pyridin-3-yl)-1H-pyrazolo[4,3-b]pyridine] | 1880 | 900 | 74 | 
9 | O=C(CC1CCNCC1)Nc1cncc(-c2ccc3[nH]nc(-c4cc5c(-c6ccccn6)cccc5[nH]4)c3n2)c1 [Compound 621, 2-(Piperidin-4-yl)-N-(5-(3-(4-(pyridin-2-yl)-1H-indol-2-yl)-1H-pyrazolo[4,3-b]pyridin-5-yl)pyridin-3-yl)acetamide] | > 10000 |  | 8 | 51

Second part, led by results:

Row | EC50 (SW480 colon cancer cells) [nM] | EC50 [1] [nM] | SMILES | Emax [1] [%] | inhibition at 10 µM (SW480 colon cancer cells) [%]
10 | 3910 |  | CN1CCN(c2cccc3[nH]c(-c4n[nH]c5ccc(-c6cncc(NC(=O)c7ccccc7)c6)nc45)cc23)CC1 [Compound 235, N-(5-(3-(4-(4-Methylpiperazin-1-yl)-1H-indol-2-yl)-1H-pyrazolo[4,3-b]pyridin-5-yl)pyridin-3-yl)benzamide] | 19 | 
11 | > 10000 | 100 | CN1CCN(c2cccc3[nH]c(-c4n[nH]c5ccc(-c6cncnc6)nc45)cc23)CC1 [Compound 251, 3-(4-(4-Methylpiperazin-1l-yl)-1H-indol-2-yl)-5-(pyrimidin-5-yl)-1H-pyrazolo[4,3-b]pyridine] | 67 | 15.3
12 | 1910 | 2700 | CN(C)c1cncc(-c2ccc3[nH]nc(-c4cc5c(-c6ccoc6)cccc5[nH]4)c3n2)c1 [Compound 315, 5-(3-(4-(Furan-3-yl)-1H-indol-2-yl)-1H-pyrazolo[4,3-b]pyridin-5-yl)-N,N-dimethylpyridin-3-amine] | 80 | 
13 | 1300 | 10 | CN(C)CCNc1cc(F)cc(-c2cccc3[nH]c(-c4n[nH]c5ccc(-c6cncnc6)nc45)cc23)c1 [Compound 475, N^1-(3-Fluoro-5-(2-(5-(pyrimidin-5-yl)-1H-pyrazolo[4,3-b]pyridin-3-yl)-1H-indol-4-yl)phenyl)-N^2,N^2-dimethylylethane-1,2-diamine] | 181 | 
14 | 592 | 900 | Cc1ccncc1-c1ccc2[nH]nc(-c3cc4c(-c5cc(F)cc(CNS(C)(=O)=O)c5)cccc4[nH]3)c2n1 [Compound 481, N-(3-Fluoro-5-(2-(5-(4-methylpyridin-3-yl)-1H-pyrazolo[4,3-b]pyridin-3-yl)-1H-indol-4-yl)benzyl)methanesulfonamide] | 143 | 
15 | 3940 |  | c1cc(N2CCCCC2)c2cc(-c3n[nH]c4ccc(-c5cncc(OC6CCNCC6)c5)nc34)[nH]c2c1 [Compound 636, 3-(4-(Piperidin-1-yl)-1H-indol-2-yl)-5-(5-(piperidin-4-yloxy)pyridin-3-yl)-1H-pyrazolo[4,3-b]pyridine] | 34 | 
